Data on one molecule can be found in US9840532B2, “5′-substituted nucleoside compounds” (Eli Lilly and Company, priority 2015, dated 2017).

Assay [1] has as its system Namalwa (Burkitt's lymphoma) cells. Description: Xenograft tumor model, lymphoma (Namalwa). The note with it: oral gavage. In kind it is in vivo, mouse. Here is the method:
(§1) The purpose of this assay is to measure in a mouse model of cancer the reduction in tumor volume in response to test compound administration.
(§2) Grow A375 (melanoma) cells in DMEM/High glucose (HYCLONE™ cat. # SH30022) with 10% HI FBS (GIBCO® cat. #10082-147). Grow Will-2 (DLBCL) cells in RPMI 1640 with L-glutamine and 20% heat inactivated FBS. Grow Namalwa (Burkitt's lymphoma) cells (ATCC) in RPMI 1640 media supplemented with L-glutamine, 25 mM HEPES (GIBCO® 22400-089), 1 mM sodium pyruvate and 7.5% FBS. Grow Molt 4 cells in RPMI 1640 with L-glutamine, 25 mM HEPES [GIBCO 22400-089], 1 mM sodium pyruvate, and 10% FBS. Harvest cells and inject subcutaneously onto the rear flank of nude mice (A375: 5×10^6 cells/animal, mixed 1:1 with MATRIGEL®; Will-2; 1×10^7 cells/animal; Namalwa: 2×10^6 cells/animal; Molt 4: : 5×10^6 cells/animal, mixed 1:1 with MATRIGEL®). When tumors are established (approximately 200 mm^3, 7-21 days after implant), randomize animals, and group them into control and test groups. Formulate the test compound in 1% HEC/0.25% TWEEN®-80/0.05% Antifoam. Administer test compound and vehicles by oral gavage. Determine tumor response by tumor volume measurement (caliper) performed twice a week during the course of treatment and report as the percent inhibition of tumor volume versus the vehicle control group.

In assay [2] the test system is GDM-1 cells. Description: Combination with BCL2 inhibitor ABT-199 in AML cell lines, 4-day cell proliferation assay. It is filed as cell-based. Particulars: Homo sapiens, 96 h; GDM-1, treatment duration 4 Days; single agent or combination; read-out: Absolute IC50 (cell proliferation). The procedure:
(§3) On day 1, plate GDM-1 [ATCC®, maintained throughout in GDM-1 assay medium: RPMI-1640 medium/20% heat-inactivated FBS (GIBCO®)] and EOL-1 cells [ATCC®, maintained throughout in EOL-1 assay medium: RPMI-1640 medium/10% heat-inactivated FBS (GIBCO®)] at 4000 and 10000 cells/well (100 μL/well) respectively, in a 96-well assay plate (BD FALCON® 35-3219). Incubate the plates in a 37° C. incubator (5% CO2) for 18-24 hr. On day 2, prepare 2.0% DMSO with assay medium (as indicated above or RPMI-1640/20% heat-inactivated FBS and RPMI-1640/10% FBS for GDM-1 and EOL-1, respectively) and add 100 μL to columns 3-12 in a preparation plate. Prepare test compounds ABT-199 at 10 μM in 2% DMSO and PRMT5 inhibitor Example 1 at 25 μM in 2% DMSO and dispense into wells A2 and B2, respectively, followed by serial dilution (1:3, 10 points) to wells A11 and B11, respectively. For combinational treatment, serially dilute test compound examples at 1:2 in assay medium (as indicated above or RPMI-1640/20% heat-inactivated FBS and RPMI-1640/10% FBS for GDM-1 and EOL-1, respectively) in wells C2-C11 (0.1 μM) to H2-H11, then serially dilute test compound ABT-199 1:3 from C2-H2 (1.0 μM) to C11-H11. […] Incubate plates for 10-15 min at room temperature before reading. Measure luminescence using the PERKIN-ELMER® ENVISION® Multi-Label Reader. […]

Assay [3] relates to EOL-1 cells. Description: Combination with BCL2 inhibitor ABT-199 in AML cell lines, 7-day cell proliferation assay. It is filed as cell-based. The note with it: Homo sapiens, EOL1, 168 h; EOL-1, treatment duration 7 Days; single agent or combination; read-out: Absolute IC50 (cell proliferation). Here is the method:
as §3

Assay [4] relates to Will-2 (DLBCL) cells. Description: Xenograft tumor model, DLBCL (WILL-2). It is filed as in vivo, mouse. Particulars: oral gavage. Here is the method:
as §1, §2

`Nc1ncnc2c1ccn2[C@@H]1O[C@H]([C@H](O)c2ccc(Cl)cc2)[C@@H](O)[C@H]1O` [Example 1, (2R,3R,4S,5R)-2-(4-Aminopyrrolo[2,3-d]pyrimidin-7-yl)-5-[(R)-(4-chlorophenyl)-hydroxy-methyl]tetrahydrofuran-3,4-diol]: the entries for the “percent inhibition of tumor volume versus vehicle” value in assay [1] (2 mg/kg BID for 14 days), in assay [1] (5 mg/kg QD for 14 days) and in assay [4] (5 mg/kg QD for 14 days) were 74%, 61% and 74%, respectively. Besides, the results for the IC50 in assay [2] and in assay [3] were 224 nM and 6 nM, respectively. For the same molecule, the tumor regression in assay [4] (2 mg/kg BID for 14 days) turned out to be 50%.
